From patent US20080096906A1, “AMINOMETHYL-2-IMIDAZOLES” (priority 2006, published 2008)

The compounds below were run against TAAR1 (Mus musculus, UniProt Q923Y8) (assay: Radioligand binding to TAAR1 on membranes of stably transfected HEK293 cells). Conditions: not given.
Sequence of TAAR1 (Q923Y8 whole entry): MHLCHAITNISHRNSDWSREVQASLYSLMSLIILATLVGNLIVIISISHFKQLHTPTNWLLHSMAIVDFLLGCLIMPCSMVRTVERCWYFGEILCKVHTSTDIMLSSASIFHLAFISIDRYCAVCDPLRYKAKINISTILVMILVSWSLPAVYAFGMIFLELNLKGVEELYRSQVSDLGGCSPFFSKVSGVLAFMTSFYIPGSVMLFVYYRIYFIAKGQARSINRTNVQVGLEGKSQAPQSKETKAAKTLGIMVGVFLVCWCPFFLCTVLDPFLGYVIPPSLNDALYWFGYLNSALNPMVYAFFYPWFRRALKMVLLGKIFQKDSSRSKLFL

SMILES | Ki
Brc1cccc(NCc2ncc[nH]2)c1 [Example 71, (3-Bromo-phenyl)-(1H-imidazol-2-ylmethyl)-amine] | 99.5 nM
CC(C)N(Cc1ncc[nH]1)c1cc(Cl)cc(Cl)c1 [Example 37] | 65 nM
COc1cc(NCc2ncc[nH]2)ccc1Cl [Example 64, (4-Chloro-3-methoxy-phenyl)-(1H-imidazol-2-ylmethyl)-amine] | 25.9 nM
CN(Cc1ncc[nH]1)c1ccc(Cl)cc1 [Example 5, (4-Chloro-phenyl)-(1H-imidazol-2-ylmethyl)-methyl-amine] | 81 nM
Cc1cccc(N(Cc2ncc[nH]2)C(C)C)c1 [Example 39, (1H-Imidazol-2-ylmethyl)-isopropyl-m-tolyl-amine] | 89 nM
CCN(Cc1ncc[nH]1)c1ccc(Cl)c(Cl)c1 [Example 68, (3,4-Dichloro-phenyl)-ethyl-(1H-imidazol-2-ylmethyl)-amine] | 33.1 nM
CC(C)N(Cc1ncc[nH]1)c1cccc(Oc2cccnc2)c1 [Example 43, (1H-Imidazol-2-ylmethyl)-isopropyl-[3-(pyridin-3-yloxy)-phenyl]-amine] | 25 nM
COCCN(Cc1ncc[nH]1)c1ccccc1 [Example 21, (1H-Imidazol-2-ylmethyl)-(2-methoxy-ethyl)-phenyl-amine] | 82 nM
CC(C)N(Cc1ncc[nH]1)c1cccc(Cc2ccccc2)c1 [Example 45, (3-Benzyl-phenyl)-(1H-imidazol-2-ylmethyl)-isopropyl-amine] | 2 nM
c1ccc(COc2cccc(NCc3ncc[nH]3)c2)cc1 [Example 62, (3-Benzyloxy-phenyl)-(1H-imidazol-2-ylmethyl)-amine] | 2.8 nM
Fc1ccc(NCc2ncc[nH]2)cc1F [Example 73, (3,4-Difluoro-phenyl)-(1H-imidazol-2-ylmethyl)-amine] | 70.8 nM

Further lines, results first:

Ki | SMILES
94 nM | CC(C)N(Cc1ncc[nH]1)c1ccc(F)cc1 [Example 10, (4-Fluoro-phenyl)-(1H-imidazol-2-ylmethyl)-isopropyl-amine]
83.9 nM | Fc1ccc(NCc2ncc[nH]2)cc1Cl [Example 74, (3-Chloro-4-fluoro-phenyl)-(1H-imidazol-2-ylmethyl)-amine]
82 nM | CC(C)N(Cc1ncc[nH]1)c1cccc(Oc2ccc(Cl)cc2)c1 [Example 51, [3-(4-Chloro-phenoxy)-phenyl]-(1H-imidazol-2-ylmethyl)-isopropyl-amine]
77 nM | CC(C)N(Cc1ncc[nH]1)c1cccc(-c2ccccc2)c1 [Example 46, Biphenyl-3-yl-(1H-imidazol-2-ylmethyl)-isopropyl-amine]
73 nM | COc1cccc(N(C)Cc2ncc[nH]2)c1 [Example 6, (1H-Imidazol-2-ylmethyl)-(3-methoxy-phenyl)-methyl-amine]
55 nM | Clc1ccc(NCc2ncc[nH]2)cc1Cl [Example K8, (3,4-dichloro-phenyl)-(1H-imidazol-2-ylmethyl)-amine, reference compound]
51 nM | CCN(Cc1ncc[nH]1)c1cccc(F)c1 [Example 12, Ethyl-(3-fluoro-phenyl)-(1H-imidazol-2-ylmethyl)-amine]
36 nM | CCN(Cc1ncc[nH]1)c1cccc(Cl)c1 [Example 30, (3-Chloro-phenyl)-ethyl-(1H-imidazol-2-ylmethyl)-amine]
30 nM | CN(Cc1ncc[nH]1)c1cccc(Cl)c1 [Example 2, (3-Chloro-phenyl)-(1H-imidazol-2-ylmethyl)-methyl-amine]
26.3 nM | CCN(Cc1ncc[nH]1)c1cccc(OCc2ccccc2)c1 [Example 66, (3-Benzyloxy-phenyl)-ethyl-(1H-imidazol-2-ylmethyl)-amine]
26.1 nM | c1ccc(Oc2cccc(NCc3ncc[nH]3)c2)cc1 [Example 61, (1H-Imidazol-2-ylmethyl)-(3-phenoxy-phenyl)-amine]
21 nM | CC(C)N(Cc1ncc[nH]1)c1cccc(OCc2ccccc2)c1 [Example 41, (3-Benzyloxy-phenyl)-(1H-imidazol-2-ylmethyl)-isopropyl-amine]
11.1 nM | CCN(Cc1ncc[nH]1)c1cccc(Oc2ccccc2)c1 [Example 65, Ethyl-(1H-imidazol-2-ylmethyl)-(3-phenoxy-phenyl)-amine]

Same assay, conditions: read-out: calculated Kd value of the radioligand; radioligand used at a concentration equal to its Kd; species not stated

SMILES | Kd
c1ccc2c(c1)CCCC2C1=NCCN1 (racemic) [[^3H]-rac-2-(1,2,3,4-tetrahydro-1-naphthyl)-2-imidazoline, reference compound] | 60 nM
